Experiment [1] has as its target T1, human adenosine A1 receptor (Homo sapiens, UniProt P30542).
T1 construct: expressed in transfected cells; host or cells: CHO cells, semliki forest virus expression system; membrane preparation
T1 sequence (P30542 1-326): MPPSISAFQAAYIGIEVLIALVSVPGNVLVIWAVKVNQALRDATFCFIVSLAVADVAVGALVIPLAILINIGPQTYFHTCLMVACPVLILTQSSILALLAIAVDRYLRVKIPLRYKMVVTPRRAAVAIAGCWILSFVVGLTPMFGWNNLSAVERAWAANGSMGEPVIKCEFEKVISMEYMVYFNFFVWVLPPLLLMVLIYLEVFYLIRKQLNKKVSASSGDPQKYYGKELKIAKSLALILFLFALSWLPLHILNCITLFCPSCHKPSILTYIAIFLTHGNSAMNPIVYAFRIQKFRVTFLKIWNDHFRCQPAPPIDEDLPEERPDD
Briefly: Human adenosine A1 receptor radioligand binding assay ([3H]-DPCPX, SPA, CHO cell membranes). The following applies: recombinant human A1 receptor expressed in CHO cells; [3H]-DPCPX 0.6 nM; Ki from IC50 by Cheng-Prussoff equation; read-out: hA1 Ki. How it is done:
Human Adenosine A^1 Receptor
The gene encoding human adenosinie A1 receptor was recombinantly introduced and expressed in chinese hamster ovary (CHO) cells using the semliki forest virus expression system. Cells were harvested, washed twice by centrifugation, homogenized and again washed by centrifugation. The final washed membrane pellet was suspended in a Tris (50 mM) buffer containing 120 mM NaCl, 5 mM KCl, 2 mM CaCl2 and 10 mM MgCl2 (pH 7.4) (buffer A). The [^3H]-DPCPX (([propyl-3H]8-cyclopentyl-1,3-dipropyxanthine); 0.6 nM) binding assay was carried out in 96-well plates in the presence of 2.5 μg of membrane protein, 0.5 mg of Ysi-poly-1-lysine SPA beads and 0.1 U adenosine deaminase in a final volume of 200 μl of buffer A. Non-specific binding was defined using xanthine amine congener (XAC; 2 μM). Compounds were tested at 10 concentrations from 10 μM-0.3 nM. All assays were conducted in duplicate and repeated at least two times. Assay plates were incubated for 1 hour at room temperature before centrifugation and then bound ligand determined using a Packard Topcount scintillation counter. IC50 values were calculated using a non-linear curve fitting program and Ki values calculated using the Cheng-Prussoff equation.
(§1) In accordance with the invention, it has been shown that compounds of formula I have a high affinity toward the A2A receptor. In Table I below specific values of prepared compounds are described, Values of KiHA2A and KiHA1 are shown in Table I for compounds of formula 1. A low Ki value is indicative of a particular compound's high affinity toward a particular receptor and conversely a higher Ki value is indicative of a lower affinity for that compound toward a particular receptor. […] Generally speaking, compounds that have a higher HA1/HA2A ratio are able to give a substantially complete blockade of the HA2A receptor without substantially affecting the A1 receptor.

The target of experiment [2] is T2, human adenosine A2a receptor (Homo sapiens, UniProt P29274).
T2 construct: expressed in transfected cells; host or cells: CHO cells, semliki forest virus expression system; membrane preparation
As to the kind of experiment: Human adenosine A2a receptor radioligand binding assay ([125I]-AB-MECA, CHO cell membranes). The following applies: for Selectivity A1/A2a: ratio obtained by dividing KiHA1 by KiHA2A; for Ki: recombinant human A2a receptor expressed in CHO cells, Ki from IC50 by Cheng-Prussoff equation, read-out: hA2a Ki. As for the experimental part: Human Adenosine A2a Receptor
The gene encoding human adenosine A2a receptor was recombinantly introduced and expressed in chinese hamster ovary (CHO) cells using the semliki forest virus expression system. Cells were harvested, washed twice by centrifugation, homogenized and again washed by centrifugation. The final washed membrane pellet was suspended in a Tris (50 mM) buffer containing 120 mM NaCl, 5 mM KCl, 2 mM CaCl2 and 10 mM MgCl2 (pH 7.4) (buffer A). The [^125I]-AB-MECA ([N(6)-(4-amino-3-iodobenzyl)-5′-N-methylcarbamoyl-adenosine]; 0.05 nM) binding assay was carried out in 96-well a plates in the presence of 20 μg of membrane protein and 0.1 U adenosine deaminase in a final volume of […] of buffer A. Non-specific binding was defined using xanthine amine congener (XAC; 2 μM). Compounds were tested at 10 concentrations from 10 μM-0.3 nM. All assays were conducted in duplicate and repeated at least two times. Assay plates were incubated for 1 hour at room temperature before filtration through Whatman Unifilter GF/C 96-well filter plates (preincubated with 0.3% polyethyleneimine). Filters were washed 3 times with 0.3 ml of cold (4° C.) Tris (50 mM)—NaC […]
[…] 1 (120 mM) buffer (pH 7.4). Microscint 40 scintillation fluid (50 μl) was added to each well and the wells sealed. After gentle shaking for 20 min, plates were counted on a Packard Topcount scintillation counter. IC50 values were calculated using a non-linear curve fitting program and Ki values calculated using the Cheng-Prussoff equation.
as §1

T2 sequence (P29274 whole entry): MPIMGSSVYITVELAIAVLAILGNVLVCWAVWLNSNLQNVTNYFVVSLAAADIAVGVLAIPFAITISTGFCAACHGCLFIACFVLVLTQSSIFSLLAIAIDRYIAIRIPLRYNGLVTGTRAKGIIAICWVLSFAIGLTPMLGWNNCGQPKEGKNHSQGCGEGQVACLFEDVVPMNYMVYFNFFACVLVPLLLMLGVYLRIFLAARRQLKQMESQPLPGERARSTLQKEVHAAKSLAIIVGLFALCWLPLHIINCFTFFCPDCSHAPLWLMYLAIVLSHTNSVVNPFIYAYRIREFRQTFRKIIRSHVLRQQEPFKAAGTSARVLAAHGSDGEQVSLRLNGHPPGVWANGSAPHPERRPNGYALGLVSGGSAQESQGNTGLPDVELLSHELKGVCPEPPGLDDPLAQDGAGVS

As for `COc1cccc(C(=O)Nc2nc3c(OC)ccc(-c4cccs4)n3n2)c1` [Example 19, 3-Methoxy-N-(8-methoxy-5-thiophen-2-yl-[1,2,4]triazolo[1,5-a]pyridin-2-yl)-benzamide], the Ki in experiment [1] worked out at 4940 nM. In experiment [2], the “Selectivity A1/A2a” value is listed as 24.6 and the Ki worked out at 201 nM.

Consider `COc1ccc(-c2cccs2)n2nc(NC(=O)c3cccc(CCl)c3)nc12` [Example 20, 3-Chloromethyl-N-(8-methoxy-5-thiophen-2-yl-[1,2,4]triazolo[1,5-a]pyridin-2-yl)-benzamide], for which, in experiment [1], the Ki stood at 3300 nM. Further, in experiment [2], the “Selectivity A1/A2a” value was 15.9 and the Ki is 208 nM.

Regarding `COc1ccc(-c2ccccc2)n2nc(NC(=O)c3ccc(C)s3)nc12` [Example 23, 5-Methyl-thiophene-2-carboxylic acid(8-methoxy-5-phenyl-[1,2,4]triazolo[1,5-a]pyridin-2-yl)-amide], in experiment [1], the Ki amounted to 2830 nM. In addition, in experiment [2], the “Selectivity A1/A2a” value is recorded as 43.4 and the Ki is 65.1 nM.

For `COc1ccc(-c2ccccc2F)n2nc(NC(=O)c3ccc(C)s3)nc12` [Example 24, 5-Methyl-thiophene-2-carboxylic acid [5-(2-fluoro-phenyl)-8-methoxy-[1,2,4]triazolo[1,5-a]pyridin-2-yl]-amide], the Ki in experiment [1] is 2610 nM; in experiment [2] it was 134 nM. For the same compound, in experiment [2], the “Selectivity A1/A2a” value was found to be 19.5.

As to `COc1ccc(-c2cccc(Cl)c2)n2nc(NC(=O)c3ccc(C)s3)nc12` [Example 25, 5-Methyl-thiophene-2-carboxylic acid [5-(3-chloro-phenyl)-8-methoxy-[1,2,4]triazolo[1,5-a]pyridin-2-yl]-amide], the Ki is 2090 nM in experiment [1] and 165 nM in experiment [2]. Also, in experiment [2], the “Selectivity A1/A2a” value is reported as 12.7.

Regarding `COc1ccc(-c2ccc(Cl)cc2)n2nc(NC(=O)c3ccc(C)s3)nc12` [Example 26, 5-Methyl-thiophene-2-carboxylic acid [5-(4-chloro-phenyl)-8-methoxy-[1,2,4]triazolo[1,5-a]pyridin-2-yl]-amide], the inhibition constant Ki in experiment [1] worked out at 2860 nM; in experiment [2], 256 nM. The “Selectivity A1/A2a” value in experiment [2] is 11.1.

`COc1cccc(-c2ccc(OC)c3nc(NC(=O)c4ccc(C)s4)nn23)c1` [Example 27, 5-Methyl-thiophene-2-carboxylic acid [8-methoxy-5-(3-methoxy-phenyl)-[1,2,4]triazolo[1,5-a]pyridin-2-yl]-amide]: the Ki in experiment [1] came to 1760 nM. For the same compound, in experiment [2], the “Selectivity A1/A2a” value is reported as 16.5 and the Ki was 107 nM.

Turning to `COc1ccc(-c2ccc(OC)c3nc(NC(=O)c4ccc(C)s4)nn23)cc1` [Example 28, 5-Methyl-thiophene-2-carboxylic acid [8-methoxy-5-(4-methoxy-phenyl) [1,2,4]triazolo[1,5-a]pyridin-2-yl]-amide], the Ki in experiment [1] was 5210 nM. For the same compound, in experiment [2], the “Selectivity A1/A2a” value is listed as 36.5 and the Ki is 143 nM.

Consider `COc1ccc(-c2ccsc2)n2nc(NC(=O)c3ccc(C)s3)nc12` [Example 29, 5-Methyl-thiophene-2-carboxylic acid (8-methoxy-5-thiophen-3-yl-[1,2,4]triazolo[1,5-a]pyridin-2-yl)-amide], for which the Ki in experiment [1] was determined as 1720 nM; in experiment [2], 71.1 nM. For the same compound, in experiment [2], the “Selectivity A1/A2a” value was determined as 24.2.

For `CCOc1cccc(-c2ccc(OC)c3nc(NC(=O)c4ccc(C)s4)nn23)c1` [Example 30, 5-Methyl-thiophene-2-carboxylic acid [5-(3-ethoxy-phenyl)-8-methoxy-[1,2,4]triazolo[1,5-a]pyridin-2-yl]-amide], the Ki in experiment [1] worked out at 1360 nM. Further, in experiment [2], the “Selectivity A1/A2a” value came out at 18.6 and the Ki turned out to be 72.9 nM.

Take `COc1ccc(-c2ccc(Cl)s2)n2nc(NC(=O)c3ccc(C)s3)nc12` [Example 31, 5-Methyl-thiophene-2-carboxylic acid [5-(5-chloro-thiophen-2-yl)-8-methoxy-[1,2,4]triazolo[1,5-a]pyridin-2-yl]-amide]: in experiment [1], the Ki was 1170 nM. Further, in experiment [2], the “Selectivity A1/A2a” value was determined as 39.6 and the Ki is 29.5 nM.

Turning to `COc1ccc(-c2ccccc2F)n2nc(NC(=O)c3ccc(F)cc3)nc12` [Example 32, 4-Fluoro-N-[5-(2-fluorophenyl)-8-methoxy-[1,2,4]triazolo[1,5-a]pyridin-2-yl]-benzamide], the Ki is 5640 nM in experiment [1] and 229 nM in experiment [2]. Moreover, the “Selectivity A1/A2a” value in experiment [2] is 24.6.

As to `COc1ccc(-c2ccsc2)n2nc(NC(=O)c3ccc(F)cc3)nc12` [Example 33, 4-Fluoro-N-(8-methoxy-5-thiophen-3-yl-[1,2,4]triazolo[1,5-a]pyridin-2-yl)-benzamide], in experiment [1], the Ki was found to be 2340 nM. Also, in experiment [2], the “Selectivity A1/A2a” value came out at 12.3 and the Ki amounted to 191 nM.

In the case of `CCOc1cccc(-c2ccc(OC)c3nc(NC(=O)c4ccc(F)cc4)nn23)c1` [Example 34, N-[5-(3-Ethoxy-phenyl)-8-methoxy-[1,2,4]triazolo[1,5-a]pyridin-2-yl]-4-fluoro-benzamide], the Ki in experiment [1] was determined as 1490 nM. Further, in experiment [2], the “Selectivity A1/A2a” value stood at 11.2 and the Ki stood at 133 nM.

As for `COc1ccc(-c2cccc(F)c2)n2nc(NC(=O)c3ccc(C)s3)nc12` [Example 35, 5-Methyl-thiophene-2-carboxylic acid [5-(3-fluoro-phenyl)-8-methoxy-[1,2,4]triazolo[1,5-a]pyridin-2-yl]-amide], the Ki in experiment [1] was 1360 nM. Further, in experiment [2], the “Selectivity A1/A2a” value stood at 10.6 and the Ki turned out to be 128 nM.

What is called Ki is the equilibrium dissociation constant of an inhibitor or competing ligand from its target.
